In data set [1] the test system is mouse model intratibially transplanted with a PC-3 human prostate cancer cell line. In words: Abnormal bone formation and bone resorption in mouse model intratibially transplanted with PC-3 cells (μCT). The class given is in vivo. The settings on record: PC-3 in mouse tibia, 200 mg/kg/day orally every day for 10 days. On the procedure: Inhibitory Effect on the Abnormal Bone Formation and Bone Resorption in the Mouse Model Intratibially Transplanted with a PC-3 Human Prostate Cancer Cell Line
The PC-3 human prostate cancer cell line was transplanted in the mouse tibia at 2×10^6 cells/15 μL. On the following day of transplantation, the mice were grouped so that the average body weight of the mice in each group was equal, and the compound IA was administered orally at 200 mg/kg/day every day for 10 days. On Day 11 after transplantation, the graft site was imaged by μCT and bone lesions were evaluated.

Data set [2] relates to mouse model intratibially transplanted with an A549-luc-BM1 human lung cancer cell line. Nature of the data set: Abnormal bone formation and bone resorption in mouse model intratibially transplanted with A549-luc-BM1 cells (μCT). The class given is in vivo. The settings on record: A549-luc-BM1 in mouse tibia. The source says:
Inhibitory Effect on the Abnormal Bone Formation and Bone Resorption in the Mouse Model Intratibially Transplanted an A549-Luc-BM1 Human Lung Cancer Cell Line The A549 human lung cancer cell line in which the luciferase gene was transfected was transplanted in the left ventricle of nude mice, whereby the A549-luc-BM1 lung cancer cell line, which selectively metastasizes to and proliferates in the bone, was established. The cells thus obtained were transplanted in the mouse tibia at 2×10^6 cells/15 μL. On Day 7 after transplantation, the luciferase activity in the graft site was measured by an in-vivo imaging system. Subsequently, the mice were grouped so that the average luciferase activity of each group was equal, and the compound IA was administered orally at 200 mg/kg/day every day for 28 days. The treatment control group received subcutaneous administration of zoledronic acid, which is the third-generation bisphosphonate preparation, at 0.2 mg/kg/day twice a week. For the evaluation of bone lesions, the graft site was imaged by μCT on Day 36 after transplantation.

For `CNC(=O)c1cc2c(Oc3ccc(NC(=S)NC(=O)Cc4ccccc4)cc3F)ccnc2cc1OC` [Compound IA, 4-[2-fluoro-4-[[[(2-phenylacetyl)amino]thioxomethyl]amino]-phenoxy]-7-methoxy-N-methyl-6-quinolinecarboxamide], in data set [1], the “bone mass (inhibition of accelerated metabolic bone destruction and formation of abnormal brittle bone)” value was “maintained a normal level of bone mass”; the “death and body weight reduction” value is “without causing death or reducing body weight”. Besides, in data set [1] (μCT on Day 11 after transplantation), the “abnormal bone formation in the bone at the graft site (μCT, FIG. 1)” value was “evidently inhibited the abnormal bone formation”. In addition, the “inhibitory effect on abnormal bone metabolism (bone resorption and bone formation) compared with zoledronic acid” value in data set [2] (200 mg/kg/day orally for 28 days) is “better inhibitory effect on abnormal bone metabolism (bone resorption and bone formation) than zoledronic acid”. In data set [2] (compound IA 200 mg/kg/day orally for 28 days, zoledronic acid 0.2 mg/kg/day s.c. twice a week, μCT on Day 36), the “bone destruction and deformation at the graft site (μCT, FIG. 2)” value is “remarkably inhibited bone destruction and deformation”.
